How the values were obtained:
mouse TRPV4 (mTRPV4) = molecular target: T1, mouse TRPV4 (mTRPV4) (Mus musculus, UniProt Q9EPK8); experiment: Whole-cell patch clamp of mouse TRPV4 expressed in HEK-293T cells; format: cell-based; set-up: key to Agonist efficacy: Ø - not activated
T1 construct: expressed in transfected cells; host or cells: HEK-293T
Method: (§1) Transformed human embryonic kidney-293 (HEK-293T) cells were grown in Dulbecco's modified Eagle's medium (DMEM)+F-12 supplemented with 10% fetal calf serum, and 1% penicillin/streptomycin in 5% CO2 at 37°C. Cells grown to 90% confluence in 35 mm Petri dishes were transiently transfected with plasmid DNA encoding a TRP channel construct (1 µg). Rat TRPV1 (rTRPV1) was cloned into an enhanced green fluorescent protein-containing vector (pTracer-CMV2; Invitrogen, Carlsbad, CA). Chicken TRPV1 (cTRPV1), the chicken rat TRPV1 chimera (crcTRPV1), rat TRPV2 (rTRPV2), mouse TRPV3 (mTRPV3), mouse TRPV4 (mTRPV4), rat TRPM8 (rTRPM8), and rat TRPA1 (rTRPA1), were cloned into pcDNA3 and co-transfected with enhanced green fluorescent protein (0.1 µg) to follow expression. The cTRPV1 and crcTRPV1 clones were kindly provided by Dr. David Julius. Recordings were carried out 24–36 hours after transfection. Cells were split via trypsin EDTA, plated on glass coverslips at 5–10% confluence, and used 2–3 hours later.
(§2) Electrophysiological experiments were performed using the whole-cell patch-clamp technique at room temperature. Modified Ringer's solution with low chloride and nominal calcium contained (in mM): 130 sodium hydroxide, 5 potassium chloride, 1 magnesium chloride, 10 sodium 4-(2-hydroxyethyl)-1-piperazineethanesulfonic acid, 10 2-(N-morpholino)ethanesulfonic acid, and 20 glucose (pH 7.4; 310 milli-osmolar). […] 2 mM calcium chloride was included in the external solution where noted. To activate TRPV1, the modified Ringer's solution was made at pH 5 (low pH solution) and the chloride concentration was kept to a minimum to prevent contamination of the TRPV1 currents with acid-activated chloride currents. For recordings from heterologously expressing cells, the internal pipette solution contained (in mM): 125 cesium-Methanesulfonate, 10 cesium (1.2-bis(o-aminophenoxy)ethane-N,N,N',N'-tetraacetic acid, 8 sodium chloride, 4 magnesium adenosine triphosphate, and 10 HEPES (pH 7.2; 290 mOSM; nominal free calcium concentrations). For TRPA1 and dorsal root ganglion recordings, the internal pipette solution contained (in mM): 110 cesium-Methanesulfonate, 0.5 cesium4BAPTA, 8 sodium chloride, 0.2 calcium chloride, 4 magnesium-ATP, 4 sodium-GTP, and 10 4-(2-hydroxyethyl)-1-piperazineethanesulfonic acid (pH 7.2; 290 mOSM; 100 nM free calcium internal). MaxChelator was used to calculate the free calcium concentration (http://www.stanford.edu/cpatton/maxc.html).
Recordings were obtained using an Axopatch 200B amplifier, Digidata 1322A analog-to-digital converter, and pClamp 8.01 software (Molecular Devices, Union City, CA). Data were low-pass filtered at 2 kHz and digitized at 5 kHz. Borosilicate glass pipettes (World Precision Instruments, Sarasota, FL) were typically 3 MΩ pipette resistance after fire polishing. Cell capacitance was measured for each cell, and access resistance compensated to ∼80%. Recordings were begun ∼5 minutes after initial rupture to ensure initial steady state conditions. Current-voltage (I-V) relations were obtained using a ramp protocol. Voltage ramps (400 ms) from −100 to +40 or +100 mV were applied every 1–2 seconds and the holding potential was either −70 mV or 0 mV (see Figure Legends). A 40 ms step was added at the beginning and end of the ramp (i.e. at −100 mV, +40 mV or +100 mV). Liquid junction potentials were not corrected. […]

rat TRPV2 (rTRPV2) = molecular target: T2, rat TRPV2 (rTRPV2) (Rattus norvegicus, UniProt Q9WUD2); experiment: Whole-cell patch clamp of rat TRPV2 expressed in HEK-293T cells; format: cell-based; set-up: key to Agonist efficacy: Ø - not activated; details: for Increase of agonist-evoked current prior to onset of inhibition: citral 1 mM, n = 10
T2 construct: expressed in transfected cells; host or cells: HEK-293T
T2 sequence (Q9WUD2 1-761): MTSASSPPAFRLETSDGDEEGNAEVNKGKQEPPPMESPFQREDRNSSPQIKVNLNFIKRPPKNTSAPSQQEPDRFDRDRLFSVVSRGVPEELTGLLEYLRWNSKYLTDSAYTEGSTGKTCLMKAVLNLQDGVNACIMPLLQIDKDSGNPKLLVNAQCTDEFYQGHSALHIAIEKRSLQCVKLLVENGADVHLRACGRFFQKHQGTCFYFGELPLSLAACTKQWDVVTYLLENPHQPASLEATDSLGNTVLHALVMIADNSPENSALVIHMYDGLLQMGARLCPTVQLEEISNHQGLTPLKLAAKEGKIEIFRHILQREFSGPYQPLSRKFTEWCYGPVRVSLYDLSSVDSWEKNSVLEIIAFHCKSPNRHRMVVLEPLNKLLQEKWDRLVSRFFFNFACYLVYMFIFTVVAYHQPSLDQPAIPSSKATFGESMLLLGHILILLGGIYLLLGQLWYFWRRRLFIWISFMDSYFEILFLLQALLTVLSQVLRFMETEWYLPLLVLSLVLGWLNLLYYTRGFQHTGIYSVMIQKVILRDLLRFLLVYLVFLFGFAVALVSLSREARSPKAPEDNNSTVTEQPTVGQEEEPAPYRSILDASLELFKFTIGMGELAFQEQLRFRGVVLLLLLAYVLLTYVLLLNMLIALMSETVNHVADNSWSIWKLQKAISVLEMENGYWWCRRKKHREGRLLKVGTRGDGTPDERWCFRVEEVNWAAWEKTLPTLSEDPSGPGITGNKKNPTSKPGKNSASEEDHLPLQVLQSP
Method: as §1, §2
Recordings were obtained using an Axopatch 200B amplifier, Digidata 1322A analog-to-digital converter, and pClamp 8.01 software (Molecular Devices, Union City, CA). Data were low-pass filtered at 2 kHz and digitized at 5 kHz. Borosilicate glass pipettes (World Precision Instruments, Sarasota, FL) were typically 3 MΩ pipette resistance after fire polishing. Cell capacitance was measured for each cell, and access resistance compensated to ∼80%. Recordings were begun ∼5 minutes after initial rupture to ensure initial steady state conditions. Current-voltage (I-V) relations were obtained using a ramp protocol. Voltage ramps (400 ms) from −100 to +40 or +100 mV were applied every 1–2 seconds and the holding potential was either −70 mV or 0 mV (see Figure Legends). A 40 ms step was added at the beginning and end of the ramp (i.e. at −100 mV, +40 mV or +100 mV). Liquid junction potentials were not corrected.
The dose response curves were fit with the Hill equation, where [drawing 8] and [A] is the concentration of agonist or blocker, N is the Hill coefficient, and KD is the [A] for Imeasured/Imax = 0.5. The term apparent dissociation constant is used in place of the half concentration of excitation and inhibition. […] Averaged data are presented as mean±standard error (S.E.) throughout. Statistical analysis included paired and unpaired Student's t-test comparisons of the data; p values are reported in the text.

[1] = in humans; cited from earlier work

T1 sequence (Q9EPK8 whole entry): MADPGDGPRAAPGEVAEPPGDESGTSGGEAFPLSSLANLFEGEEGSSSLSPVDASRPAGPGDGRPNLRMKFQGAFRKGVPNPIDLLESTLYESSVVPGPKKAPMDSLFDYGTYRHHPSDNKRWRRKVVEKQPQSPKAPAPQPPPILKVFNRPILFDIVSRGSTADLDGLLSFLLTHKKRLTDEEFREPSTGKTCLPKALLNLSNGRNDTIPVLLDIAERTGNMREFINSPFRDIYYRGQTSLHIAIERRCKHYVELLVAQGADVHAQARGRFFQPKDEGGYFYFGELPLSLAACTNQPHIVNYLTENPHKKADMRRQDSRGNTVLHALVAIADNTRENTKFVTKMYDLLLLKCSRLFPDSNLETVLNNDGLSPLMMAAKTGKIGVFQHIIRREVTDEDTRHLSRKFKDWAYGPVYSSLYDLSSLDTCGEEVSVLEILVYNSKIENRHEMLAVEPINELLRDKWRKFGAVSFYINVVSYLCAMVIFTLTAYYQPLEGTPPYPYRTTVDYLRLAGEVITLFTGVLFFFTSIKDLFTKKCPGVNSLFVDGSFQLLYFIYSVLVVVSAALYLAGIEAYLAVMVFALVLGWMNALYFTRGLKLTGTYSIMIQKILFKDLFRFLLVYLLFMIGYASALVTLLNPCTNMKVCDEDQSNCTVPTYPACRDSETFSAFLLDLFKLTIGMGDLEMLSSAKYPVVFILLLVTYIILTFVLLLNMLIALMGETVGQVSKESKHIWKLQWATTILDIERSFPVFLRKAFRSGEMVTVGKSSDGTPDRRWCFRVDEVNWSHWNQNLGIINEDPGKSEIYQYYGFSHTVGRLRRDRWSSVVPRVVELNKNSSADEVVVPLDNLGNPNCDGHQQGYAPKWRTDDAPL

Which results are given for `CC(C)=CCCC(C)=CC=O` [citral, 3,7-dimethyl-2,6-octadienal]?
Agonist efficacy (mouse TRPV4 (mTRPV4)): Ø; Reversibility of citral inhibition of agonist-evoked current (mouse TRPV4 (mTRPV4); 4α-phorbol-12, 13-didecanoate-evoked): rapidly reversed; Effect of citral addition on agonist-induced current (mouse TRPV4 (mTRPV4); 4α-phorbol-12, 13-didecanoate-induced, n = 9): not increased; Hill coefficient (inhibition) (mouse TRPV4 (mTRPV4); citral block of 4α-phorbol-12, 13-didecanoate-evoked current): 0.9; Kd (mouse TRPV4 (mTRPV4); read-out: Inhibition KD, app): 32 µM; Agonist efficacy (rat TRPV2 (rTRPV2)): Ø; Reversibility of citral inhibition of agonist-evoked current (rat TRPV2 (rTRPV2)): essentially irreversible; Increase of agonist-evoked current prior to onset of inhibition (rat TRPV2 (rTRPV2); +100 mV): 2.2±0.2 fold; Increase of agonist-evoked current prior to onset of inhibition (rat TRPV2 (rTRPV2); −100 mV): 2.5±0.4 fold; Hill coefficient (inhibition) (rat TRPV2 (rTRPV2); citral block of 2-aminoethyldiphenyl borate-evoked current): 2.4; Kd (rat TRPV2 (rTRPV2); read-out: Inhibition KD, app): 534 µM; Concentration at which therapeutic effects have been attributed [1]: 1 to 100 µM
